Data published in US20220031848A1, “BIOINK FOR 3D DEPOSITION” (Regents of the University of Minnesota, priority 2018, published 2022).
Values belong to the compound of their own block, whether it stands above or below them.

Tests used:
[1] = tested on: printed heart; experiment: Fluid pressure in ventricular-like chamber of the printed heart (FIG. 11A); type: cell-based; settings: versus spontaneous mechanical activity of the same chamber
Excerpt: FIG. 11A is a graph of pressure dynamics of an example printed heart using bioink described herein. […] The relatively flat line is the system baseline without contraction. Other clinically-important, physiologically complex mechanical parameters can also be measured. FIG. 11B is an optical map of an example printed heart using bioink described herein.

[2] = tested on: differentiated hiPSCs in the printed heart; experiment: Calcium traces of the printed heart, first experiment (FIG. 9); type: cell-based, human; settings: complex printed heart (FIG. 9)
[3] = tested on: hChaMPs; experiment: Contractility video analysis of hChaMPs; type: cell-based; settings: Homo sapiens; at least 3 different areas across 2 hChaMPs (FIG. 38); read-out: EC50, beat rate by contractility
Excerpt: Beating videos of hChaMPs were obtained at 4× on an Axiovert CFL 40 microscope at 8.7 frames per second. Beating rates (contraction, relaxation, and beats per minute) were obtained using an open source automated video analysis algorithm^4 with a macroblock size of 100×100 pixels and a maximum movement detection of 50 pixels to accommodate the robust movement of the tissue. For generation of a heat map of contractility over an entire hChaMP, a macroscale video was used with the macroblock size set to 25×25 pixels in the video analysis algorithm with a maximum movement detection of 20 pixels due to the lower magnification.

[4] = tested on: hChaMP; experiment: Optical mapping of voltage in hChaMP (di-4-ANEPPS); type: cell-based, human; settings: 1 μM (FIG. 35B)
Experimental: The hChaMP was immersed in a 10 μM solution of the voltage-sensitive dye di-4-ANEPPS in Krebs-Ringer Buffer for 20 min. After this incubation, half of the dye solution was removed and replaced with RPMI+B27 with insulin media. After 2-5 min stabilization, hChaMPs were excited with a two diode-pumped, continuous-excitation green laser (532 nm, 1 W), and fluorescence intensity was recorded for 15 seconds using 14-bit, 80×80-pixel resolution cameras at 500 frames per second. In some hChaMPs, pacing was provided at 1 and 2 Hz via a bipolar electrode and optical mapping movies were recorded during pacing. For drug testing, hChaMPs were treated with 1 μM of isoproterenol and optical mapping movies were recorded with and without pacing.
Optical action potential duration (APD) was measured at 80% repolarization, and two-dimensional (2D) APD maps were constructed to reveal the spatial distribution of APD on the hChaMP surface. Local conduction velocity (CV) was calculated as described previously. Specifically, the distributions of activation times (AT), measured at (dV/dt)max, for the spatial regions of 3×3 pixels were fitted with the plane, and gradients of activation times gx and gy were calculated for each plane along the x- and y-axes, respectively. The magnitude of the local CV was calculated for each pixel as (gx^2+gy^2)^−1/2. Mean values for CV were calculated for the visible surface. […]

[5] = tested on: hChaMPs; experiment: Calcium transients in hChaMPs (Fluo-4 AM), drug response; type: cell-based, human
Experimental: Calcium movement in hChaMPs was recorded after recovery from lactate treatment using a DMi8 fluorescence microscope (Leica, Wetzlar, Germany). hChaMPs were first cultured with 5 μM Fluo-4 acetoxymethyl ester for 30 min at 37° C. and then washed with Tyrode's salt solution for another 30 min at 37° C. After that, the plates with hChaMPs were moved onto the microscope stage and covered with a heating plate to maintain the temperature at 37° C. Fluo-4 AM intensity was recorded at a frame rate of 6.90 Hz with 30 ms exposure time. The acquired data was processed by Fiji and a custom-written script in MATLAB (MathWorks). To generate the calcium traces, background signals of nonactive regions were subtracted from fluorescence signals of beating sites and then normalized against the baseline intensity. The effects of ionotropic drugs on calcium activity of hChaMPs were also analyzed by incubating Fluo-4 AM-treated hChaMPs with 1 μM Isoproterenol or 0.5 μM Verapamil for 10 min at 37° C. prior to being imaged. Calcium transients are presented as normalized intensity (f/f0) over time, along with the average peak amplitude and the average interspike interval.

[6] = tested on: hChaMP; experiment: Pressure-volume catheter measurement in hChaMP; type: cell-based, human; settings: 1 μM versus spontaneous contraction, 5 contraction cycles (FIGS. 44A, 44B)
Experimental: Pulse pressure and stroke volume of hChaMPs were measured using an ADV500 PV system with a PV catheter. The hChaMP was transferred to a 10 cm dish with 20 mL RPMI plus B-27 Supplement with insulin on a heating plate pre-heated to 37° C. to ensure the working temperature was always above 30° C. The PV catheter was inserted and positioned close to the apex of hChaMP to obtain clear pressure and volume signals, and the vessel through which the catheter was inserted was tied off to stabilize the construct. Isoproterenol was given by adding 20 μL of 1 mM solution into the dish to achieve the final concentration of 1 μM. […] The volume reading was further calibrated by conducting a dye dilution test. Briefly, acellular hChaMPs were first monitored by the ADV500 PV system while being compressed and released by 1.45 mm, 2.9 mm, and 4.35 mm from the side. […] Next, the hChaMP was compressed and released by 1.45 mm depth from the side for 3 times, and the hChaMP was then removed and the bulk medium was collected and examined by a Cytation 3 microplate reader at 524 nm for absorbance from which the displaced volume could be determined. […]
The acquired data was post-processed and analyzed by a custom-written script in MATLAB. […] To examine the stroke work generated by the hChaMPs, 5 random contraction cycles were used for creating PV loops and the stroke work was determined by the area in the loops.

SMILES: Cc1ccc2c(c1)C(=O)C1(O)CCN(c3ccccc3)C1=N2 (stereo not drawn) [blebbistatin]
chamber pressure amplitude [1]: inhibited pressure amplitudes

SMILES: Cn1c(=O)c2c(ncn2C)n(C)c1=O [caffeine]
beating rate with respect to control [2]: accelerate

EC50 [3]: 9 nM
EC50 ([5]; Homo sapiens, 5 different areas across two hChaMPs (FIG. 31), read-out: EC50, beat rate by calcium transient activity): 9 nM
SMILES: CC(C)NCC(O)c1ccc(O)c(O)c1 (stereo not drawn) [isoproterenol]
response of electrical activity to drug stimulation [4]: responded in a dramatic and predicted fashion
calcium handling frequency ([5]; 1 μM, 10 min at 37° C.): increased in frequency
stroke work [6]: reduced

SMILES: COc1ccc(CCN(C)CCCC(C#N)(c2ccc(OC)c(OC)c2)C(C)C)cc1OC (stereo not drawn) [verapamil]
beating rate with respect to control [2]: slow
calcium handling amplitude ([5]; 0.5 μM, 10 min at 37° C.): decreased in amplitude
